Columns and labels:
[1] = tested on: mitochondrial permeability transition pore (mPTP); assay: mPTP-opening inhibitory activity test (calcium retention capacity, CRC) in mitochondria isolated from mouse brain; format: biochemical; settings: for mPTP-Opening inhibitory activity at 1.0 μM compound concentration CRC/CRC (DMSO): mitochondria from C57B6J mouse brain, ratio of calcium required for mPTP-opening with compound vs DMSO control
Description: In this test, inhibitory effects of mPTP in mitochondria isolated from the brain were evaluated.
The mPTP-opening inhibitory activity and efficacy of test compounds are determined by evaluating inhibitory potency thereof against opening of mPTP formed of inner and outer mitochondrial membranes, by in-vitro assay described later.
The animal was humanely euthanized by cervical dislocation, and the brain was excised out. The brain excised out was put in an isolation buffer (280 mM sucrose, 10 mM 3-morpholinopropanesulfonic acid (MOPS), 1 mM ethylenediamine tetraacetic acid dipotassium salt (EDTA-2K), pH 7.2) cooled in ice. The brain was rinsed with the buffer cooled in ice and cut by scissors in the buffer put in a beaker placed on ice. The cut pieces were transferred to a Dounce glass homogenizer. The buffer was exchanged with an isolation buffer containing 12% Percoll, and the cut pieces were homogenized. The cut pieces were homogenized four times by use of a loose pestle and 8 times by use of a tight pestle while vertically rotating. The homogenate was gently overlaid on the layer formed of two portions different in density of Percoll (26%, 40%) in 50 ml-centrifuge tubes, which were then spun by a centrifuge (HITACHI CR22N, rotor R20A2) maintained at 4° C. at 30700×g for 5 minutes. The intermediate layer between the 26% layer and the 40% layer was carefully sucked by use of a 23 G needle, added in an isolation buffer (24 ml) previously cooled in ice, and spun by a centrifuge at 16700×g to allow mitochondria to precipitate as a pellet. The supernatant was gently discarded and the mitochondria was suspended. The amount of the mitochondrial suspension was measured and an aliquot of 20 μl was taken for determining protein concentration. To the mitochondrial suspension, 10 mg/ml BSA ([…]) was added and further an isolation buffer was added up to a volume of 1.2 ml (final concentration 1 mg/mL). The suspension was transferred to 2.0 ml tubes and then centrifuged. The supernatant was discarded and mitochondrial pellets were obtained and stored in ice. The protein amount of mitochondria was measured in accordance with the Bradford method.
To mitochondrial pellets isolated, a measurement buffer (210 mM sucrose, 20 mM potassium chloride, 3 mM glycylglycine and 1 mM potassium dihydrogen phosphate) containing a fluorescent calcium indicator, calcium green-5N (200 nM), was added to as to obtain a concentration of 150 μg/ml. In this manner, a mitochondrial suspension was prepared. Calcium green, which binds to calcium and emits fluorescence, is used as a probe for quantification. When calcium green is added to a mitochondrial suspension, the presence of calcium in the external fluid thereof can be detected. The mitochondrial suspension prepared by suspending mitochondria with the measurement buffer containing 400 nM calcium green was added in wells of a 96 well plate. To predetermined wells, a measurement buffer containing 40 mM glutamic acid, 4 mM malic acid and a double-concentration of test compound was added to prepare a mitochondrial suspension of 100 μl/well (final concentration: 20 mM glutamic acid, 2 mM malic acid). To the mitochondrial suspension in the wells of the 96 well plate, calcium was continuously added dropwise (10 μl of 117 μM CaCl2) was added in a rate of 100 μl/well, final concentration 11.7 μM), and the fluorescence value reflecting the amount of extramitochondrial calcium was determined ([…]). The measurement was carried out by a functional drug screening system, FDSS3000 (Hamamatsu Photonics K. K.). Incubation at 30° C. and shaking of the well plate were carried out by devices equipped in the system. Calcium (CaCl2)) was added at intervals of one minute in accordance with the program of FDSS3000 software.

PC12 cells = assay: Cell death inhibitory activity test: glutamic acid-induced cell death of PC12 cells (MTS assay); format: cell-based, rat; settings: test compound 1, 3, 10 or 30 μM, added 24 h before glutamic acid; cell viability by MTS 48 h later
Source text: Simultaneously when mitochondria take up calcium, the membrane potential dissipates and mPTP opens. Physiologically, hydrogen peroxide generates in the mitochondrial respiratory chain with opening of mPTP and may further produce a damage to not only mitochondria but also cells. […] Oxidative stress ascribed to hydrogen peroxide may cause cell damage downstream of Ca uptake. In the test, the relationship between mPTP-opening inhibitory effect on cells and cell death was studied by using rat adrenal pheochromocytoma-derived PC12 cells.
The PC12 cells used in the test are derived from rat adrenal pheochromocytoma but are differentiated into sympathetic neurons by a nerve growth factor, and known to cause cell death in a glutamic acid concentration dependent manner (Pereira C F, Oliveira, R, Neuroscience Research, vol. 37(3), p. 227-236, 2000, Oxidative glutamate toxicity involves mitochondrial dysfunction and perturbation of intracellular Ca^2+ homeostasis).
A growth medium (composition: Dulbecco modified MEM culture medium (Gibco 11885-084) containing 100 units of penicillin, 100 μg/mL streptomycin (Gibco 15-140-122), 2.5% inactivated fetal bovine serum (Gibco 10437-028) and 2.5% inactivated horse serum (Gibco 16050-130)) were prepared. PC12 cells were cultured in a culture dish (diameter: 100 mm, Corning 353003) containing 10 ml of the growth medium. PC12 cells cryopreserved were thawed, cultured in the growth medium for at least one week and used in the test. PC12 cells were removed with 0.25% trypsin-1 mM EDTA and subcultured. The following experiments were all carried out at 37° C. by a CO2 incubator in an atmosphere containing 5% CO2. […]
After addition of MTS for CellTiter 96 ® AQueous One Solution Cell Proliferation Assay (Promega G3580)), the microplate was placed in a CO2 incubator and incubation was carried out for 4 hours. Absorbance of individual wells at a wavelength of 490 nm was measured by a spectrophotometer (SpectraMax i3 manufactured by Molecular Devices) with 700 nm used as a reference wavelength. A cell viability was calculated in accordance with the following expression (1) based on the absorbance obtained. Note that, to reduce background non-specific absorption due to excessive cell residue, culture medium and others, the obtained absorbance data were corrected based on the absorbance at a reference wavelength of 700 nm. […] Cell viability (%)=[(Abs−Abm)/(Abc−Abm)]×100 Expression (1) • Abs: Absorbance of sample (well containing cells, glutamic acid-added medium and MTS solution) • Abc: Absorbance of negative control (well containing cells, control medium and MTS solution) • Abm: Absorbance of blank (well containing control medium and MTS solution) (Suppression of Cell Death in the Presence of Test Compound) […]

[2] = tested on: local cerebral ischemia mouse model (pMCA-O); assay: Suppression test for cell death caused by cerebral ischemia: local cerebral ischemia mouse model by permanent middle cerebral artery occlusion (pMCA-O); settings: mice, 100 mg/kg intraperitoneal
Description: In the test, to evaluate the action of test compounds to protect cells from cell death in vivo, a local cerebral ischemia mouse model was prepared by permanent middle cerebral artery occlusion (pMCA-O) and actions of test compounds to protect the cells at a brain injury site one day after occlusion were examined. Note that, for preparing a permanent middle cerebral artery occlusion model, C57BL/6JJmsSlc was used.
As the solvent, dimethyl sulfoxide (DMSO: FUJIFILM Wako Pure Chemical Corporation), polyethylene glycol (PEG400: FUJIFILM Wako Pure Chemical Corporation) and phosphate buffered saline (PBS: FUJIFILM Wako Pure Chemical Corporation) were used. The final concentrations of DMSO, PEG400 and PBS were set to be 15%, 50% and 35%, respectively. […]
One day after cerebral ischemia, the head of each of the mice was removed under anesthesia with 2% isoflurane and the whole brain was carefully excised out. […] These brain sections were stained in physiological saline containing 10 mL of 2% 2,3,5-triphenyl tetrazolium chloride (TTC) (manufactured by Hayashi Pure Chemical Ind., Ltd.) for 30 minutes (Bederson, J B et al., Stroke, 1986, vol. 17, p. 1304-1308, Evaluation of 2,3,5-triphenyltetrazolium chloride as a stain for detection and quantification of experiment a cerebral Infarction in rats). […]
The size of a brain injury site was determined as follows.

Row | Structure (SMILES) | mPTP-Opening inhibitory activity at 1.0 μM compound concentration CRC/CRC (DMSO) [1] | protection of PC12 cells from cell death induced by glutamic acid (FIG. 4) (PC12 cells) | other results
1 | C[C@@]12OC(=O)[C@@H](C(=O)c3c(O)cccc31)[C@@H]2CC1=C(O)C(=O)C(C(N)=O)=C(O)C1=O [Compound I-1, 2,5-dihydroxy-4-(((1S,4R,10S)-6-hydroxy-1-methyl-3,5-dioxo-1,3,4,5-tetrahydro-1,4-methanobenzo[c]oxepin-10-yl)methyl)-3,6-dioxocyclohexa-1,4-dienocarboxamide] | 2.96 | protected PC12 cells, to no small extent | concentration needed to inhibit mPTP-opening compared with cyclosporine A (FIG. 2) ([1]; dose response of CRC/CRC(DMSO), FIG. 2): at a lower concentration than cyclosporine A; deaths of animals during the test period [2]: not seen; average brain injury rate, lower than the control group ([2]; one day after cerebral ischemia, total brain injury rate P<0.05, cerebral cortex injury rate P<0.01): about 25%
2 | C[C@@]12OC(=O)[C@@H](C(=O)c3c(O)cccc31)[C@@H]2Cc1c(O)c(O)c(C(N)=O)c(O)c1O [Compound I-2, 2,3,5,6-tetrahydroxy-4-(((1S,4R,10S)-6-hydroxy-1-methyl-3,5-dioxo-1,3,4,5-tetrahydro-1,4-methanobenzo[c]oxepin-10-yl)methyl)benzamide] | 2.92 |  | 
3 | CN(C)c1ccc(O)c2c1C[C@@H](CC1=C(O)C(=O)C(C(N)=O)=C(O)C1=O)CC2=O [Compound I-3, (S)-4-((8-(dimethylamino)-5-hydroxy-4-oxo-1,2,3,4-tetrahydronaphthalen-2-yl)methyl)-2,5-dihydroxy-3,6-dioxocyclohexa-1,4-dienecarboxamide] | 1.22 |  | 
4 | CC(=O)Oc1cccc2c1C(=O)[C@@H]1C(=O)O[C@@]2(C)[C@H]1Cc1c(OC(C)=O)c(OC(C)=O)c(C(N)=O)c(OC(C)=O)c1OC(C)=O [Compound I-4, 3-(((1S,4R,10S)-6-acetoxy-1-methyl-3,5-dioxo-1,3,4,5-tetrahydro-1,4-methanobenzo[c]oxepin-10-yl)methyl)-6-carbamoyl benzene-1,2,4,5-tetraryl tetraacetate] |  | stronger protective actions | 
5 | CC(C)(C)C(=O)Oc1cccc2c1C(=O)[C@@H]1C(=O)O[C@@]2(C)[C@H]1Cc1c(OC(=O)C(C)(C)C)c(OC(=O)C(C)(C)C)c(C#N)c(OC(=O)C(C)(C)C)c1OC(=O)C(C)(C)C [Compound I-5] |  | stronger protective actions | 
6 | C[C@@]12OC(=O)[C@@H](C(=O)c3c(OC(=O)c4ccccc4)cccc31)[C@@H]2Cc1c(OC(=O)c2ccccc2)c(OC(=O)c2ccccc2)c(C(N)=O)c(OC(=O)c2ccccc2)c1OC(=O)c1ccccc1 [Compound I-6, 3-(((1S,4R,10S)-6-(benzoyloxy)-1-methyl-3,5-dioxo-1,3,4,5-tetrahydro-1,4-methanobenzo[c]oxepin-10-yl)methyl)-6-carbamoyl benzene-1,2,4,5-tetraryl tetrabenzoate)] |  | stronger protective actions | 
7 | C[C@@]12OC(=O)[C@@H](C(=O)c3c(O)ccc(Cl)c31)[C@@H]2CC1=C(O)C(=O)C(C(N)=O)=C(O)C1=O [Compound Ia-1, 4-(((1S,4R,10S)-9-chloro-6-hydroxy-1-methyl-3,5-dioxo-1,3,4,5-tetrahydro-1,4-methanobenzo[c]oxepin-10-yl)methyl)-2,5-dihydro-3,6-dioxohexa-1,4-dienecarboxamide] | 1.66 |  | 
8 | C[C@@]12OC(=O)[C@@H](C(=O)c3c(O)ccc(Cl)c31)[C@@H]2Cc1c(O)c(O)c(C(N)=O)c(O)c1O [Compound Ia-2, 4-(((1S,4R,10S)-9-chloro-6-hydroxy-1-methyl-3,5-dioxo-1,3,4,5-tetrahydro-1,4-methanobenzo[c]oxepin-10-yl)methyl)-2,3,5,6-tetrahydroxybenzamide] | 1.50 |  | 
9 | C[C@@H]1c2cccc(O)c2C(=O)C[C@@H]1CC1=C(O)C(=O)C(C(N)=O)=C(O)C1=O [Compound Ia-3, 2,5-dihydroxy-4-(((1S,2S)-5-hydroxy-1-methyl-4-oxo-1,2,3,4-tetrahydronaphthalen-2-yl)methyl)-3,6-dioxocyclohexa-1,4-dienecarboxamide] | 3.00 |  | 
10 | C[C@@]12OC(=O)[C@@H](C(=O)c3c(O)cccc31)[C@@H]2CC1=C(O)C(=O)C(C#N)=C(O)C1=O [Compound Ia-4, 2,5-dihydroxy-4-(((1S,4R,10S)-6-hydroxy-1-methyl-3,5-dioxo-1,3,4,5-tetrahydro-1,4-methanobenzo[c]oxepin-10-yl)methyl)-3,6-dioxocyclohexa-1,4-dienocarbonitrile] | 1.59 |  | 

From patent US12544354B2 (RIKEN, priority 2019, dated 2026)
